# Experimental data as given in paper PMC3858552, “The discovery of potent ribosomal S6 kinase inhibitors by high-throughput screening and structure-guided drug design” (Oncotarget, 2013).
# Read-outs that look alike come from different tables or passages of the source.
# How the values were obtained:
# S6K1 [1] = biological target: T1, S6K1 (Homo sapiens, UniProt P23443, T412E); assay: S6K1 DELFIA phosphorylation assay (IC50 of screening hits); assay type: biochemical; details: for LE (ligand efficiency): calculated using the mean IC50 values; for IC50: repurchased samples
# T1 construct: The His-tagged kinase domain of S6K1 (residues 1-421, catalogue number 14-486) used in the HTS; His; purchased Millipore (Upstate/Millipore) 14-486
# Description: For primary screening hits, IC50 values were determined using a DELFIA® assay that monitors phosphorylation of a S6 peptide using a specific phospho-antibody. The enzyme reaction was carried out in 96 well polypropylene plates (#650261; Greiner Bio-One, Frickenhausen, Germany).
# For each compound, a 10mM stock was diluted in water resulting in a 1250 μM solution in 12.5% (v/v) DMSO. Compounds were manually diluted 1 in 3 in 12.5% (v/v) DMSO to give an eight point dilution curve in duplicate. Finally, 5 μL compound solution or 12.5% (v/v) DMSO was transferred to the assay plate resulting in compound assay concentrations of 0.12-250 μM.
# Subsequently, 20 μL of reaction reagents were added to the assay plate resulting in final assay concentrations of 1 μM S6 peptide (biotin-[…], synthesised by J. Metcalfe, ICR), 2 nM S6K1 (#14-486; Millipore, Billerica, MA, USA) and 30 μM ATP in assay buffer consisting of 40 mM HEPES pH 7.4, 10 mM MgCl2, 1 mM DTT and 0.02% (v/v) Tween 20. The reaction was incubated for an hour at 37 °C and stopped by the addition of 125 μL buffer comprising 40 mM EDTA, 0.05% (v/v) Tween 20, 0.1% (w/v) BSA in TBS (10x concentrate, Sigma-Aldrich, Gillingham, UK). A 100 μL aliquot of the reaction solution was transferred to a black neutravidin-coated plate (#15117; Perbio/Thermo Scientific, Cramlington, UK) and incubated for an hour on a Titertek shaker (Flow Laboratories, Sutton, UK) at room temperature. The plates were washed four times with WellWash4 wash buffer (Thermo Life Sciences Ltd, Basingstoke, UK) containing 25 mM Tris pH 8, 150 mM NaCl and 0.1% (v/v) Tween 20 and incubated for an hour with 100 μL of an antibody mix consisting of 0.05 nM of an anti-phospho S6 antibody (#2211; Cell Signalling Technology) and 0.18 μg/mL of an europium-labelled anti-rabbit IgG, (#AD0105; PerkinElmer Life Sciences, Waltham, MA, USA) diluted in DELFIA assay buffer (#4002-0010; PerkinElmer Life Sciences). The plates were washed a further four times with WellWash4 wash buffer (Thermo Life Sciences) before the addition of 100 μL Enhancement Solution (#4001-0010; PerkinElmer Life Sciences). The plate was read on an EnVision® 2103 Multilabel Reader (PerkinElmer Life Sciences) using a time-resolved measurement mode reading fluorescence at 615 nm. IC50 values were calculated from a four-parameter logistics fit of percentage inhibition versus concentration using GraphPad Prism 5 (GraphPad Software, Inc., CA, USA).
# S6K1 [2] = biological target: S6K1 (Homo sapiens, UniProt P23443); assay: S6K1 mobility shift (microfluidic) assay; assay type: biochemical; details: for LE (ligand efficiency): calculated using the mean IC50 values; for activity against S6K1 (in words): benzimidazole / azabenzimidazole oxadiazoles
# Description: For all compounds from the benzimidazole oxadiazole/azabenzimidazole oxadiazole series, the IC50 values were determined using a microfluidic assay that monitors the separation of a phosphorylated product from its substrate. […] For each compound, a 10 mM stock concentration in 100% DMSO was used.
# IC50 values were calculated from a four-parameter logistics fit of percentage inhibition versus concentration using GraphPad Prism 5 (GraphPad Software, Inc., CA, USA).
# S6K-Ser421/424 = assay: Electrochemiluminescent ELISA, S6K-Ser421/424 phosphorylation in intact cells; assay type: cell-based; details: Homo sapiens, electrochemoluminescent ELISA
# Description: (§1) The human bladder carcinoma cell line HCV29 was obtained from Dr Richard Lamb (University of Liverpool, UK). This cell line has elevated mTORC1 and S6K activity through loss of TSC1 [46] as a result of a missense mutation and TSC2 loss that was confirmed by immunoblotting (data not shown). Cells were cultured in RPMI (Invitrogen, Life Technologies Ltd, Paisley, UK) containing 2 mmol/L glutamine (Invitrogen), and supplemented with non-essential amino acids (Invitrogen) 10% fetal bovine serum (PAA Laboratories Ltd, Yeovil, UK) in 5% CO2 in air at 37 °C. GI50 values (concentrations) causing 50% inhibition of proliferation for tumour cells were determined using a sulforhodamine B assay. Electrochemiluminescent immunoassays (Meso Scale Discovery, Rockville, MD, USA) measuring the inhibition of phosphorylation of RPS6-ser235/236, AKT-Thr308, AKT-Ser473, GSK3b-Ser9 and S6K-Ser421/424 were carried out as described in Raynaud et al..
# RPS6-ser235/236 = assay: Electrochemiluminescent ELISA, RPS6 Ser235/236 phosphorylation in intact cells; assay type: cell-based; details: Homo sapiens, HCV-29; HCV29 intact cells, 2 hours exposure, n=3; read-out: EC50 for 50% inhibition of RPS6 Ser235/236 phosphorylation
# Description: as §1
# GSK3b-Ser9 = assay: Electrochemiluminescent ELISA, GSK3b-Ser9 phosphorylation in intact cells; assay type: cell-based; details: Homo sapiens, electrochemoluminescent ELISA
# Description: as §1
# AKT-Thr308 = assay: Electrochemiluminescent ELISA, AKT-Thr308 phosphorylation in intact cells; assay type: cell-based; details: Homo sapiens, electrochemoluminescent ELISA
# Description: as §1
# AKT-Ser473 = assay: Electrochemiluminescent ELISA, AKT-Ser473 phosphorylation in intact cells; assay type: cell-based; details: Homo sapiens, electrochemoluminescent ELISA
# Description: as §1
# [3] = system: HCV29 human bladder carcinoma cells; assay: Sulforhodamine B proliferation assay (GI50); assay type: cell-based; details: HCV-29, 96 hours continuous exposure, read-out: GI50 (50% tumour growth inhibition)
# Description: as §1
# S6K2 = S6K2 (Homo sapiens, UniProt Q9UBS0); assay: S6K2 inhibition; assay type: biochemical
# [4] = Table 2, confirmation DELFIA assay, mean ± standard error, duplicate
# [5] = Table 3, confirmation DELFIA assay, mean ± standard error, duplicate
# [6] = Table 4, mobility shift assay, mean ± SD triplicate, or duplicate/single measurement as footnoted, read-out: S6K1 IC50
# [7] = Table 5, mobility shift assay, mean ± SD triplicate, or single measurement as footnoted, read-out: S6K1 IC50
# [8] = Table 6, mobility shift assay, mean ± SD triplicate, or duplicate ± SE / single measurement as footnoted, read-out: S6K1 IC50
# Chain of S6K1 (Homo sapiens, UniProt P23443) (P23443 1-421): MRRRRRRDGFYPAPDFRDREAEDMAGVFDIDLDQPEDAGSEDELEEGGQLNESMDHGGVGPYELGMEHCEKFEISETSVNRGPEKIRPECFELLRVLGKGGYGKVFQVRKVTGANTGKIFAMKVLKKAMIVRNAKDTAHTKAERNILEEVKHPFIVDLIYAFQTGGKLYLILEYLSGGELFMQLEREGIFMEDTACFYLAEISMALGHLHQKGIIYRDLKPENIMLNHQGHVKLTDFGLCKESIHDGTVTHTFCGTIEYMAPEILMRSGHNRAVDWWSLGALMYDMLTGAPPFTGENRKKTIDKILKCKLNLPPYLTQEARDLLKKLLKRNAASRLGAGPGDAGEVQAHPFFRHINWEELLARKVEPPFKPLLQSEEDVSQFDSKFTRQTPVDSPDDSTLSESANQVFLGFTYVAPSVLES
# T1 sequence (P23443 1-421 T412E limits assumed): as the sequence (P23443 1-421) above, with T412E counted along it
# Chain of S6K2 (Q9UBS0 whole entry): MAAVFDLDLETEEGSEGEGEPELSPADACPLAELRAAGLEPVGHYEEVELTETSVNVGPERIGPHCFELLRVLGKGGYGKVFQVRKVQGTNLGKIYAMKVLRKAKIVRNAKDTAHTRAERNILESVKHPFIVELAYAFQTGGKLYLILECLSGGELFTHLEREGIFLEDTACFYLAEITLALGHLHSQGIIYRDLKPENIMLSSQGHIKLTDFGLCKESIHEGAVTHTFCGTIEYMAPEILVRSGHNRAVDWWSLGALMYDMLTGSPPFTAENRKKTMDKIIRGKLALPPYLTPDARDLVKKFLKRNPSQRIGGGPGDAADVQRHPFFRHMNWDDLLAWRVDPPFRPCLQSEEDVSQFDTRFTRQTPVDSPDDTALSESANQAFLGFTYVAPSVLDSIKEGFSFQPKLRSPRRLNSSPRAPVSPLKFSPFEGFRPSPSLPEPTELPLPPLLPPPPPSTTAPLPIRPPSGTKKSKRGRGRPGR
smiles,measurement,setting,value
O=c1c2ccccc2nc(-c2cccnc2)n1-c1ccc(Br)cn1 [Compound 7],LE (ligand efficiency),S6K1 [1]; Table 2,0.38
same,IC50,S6K1 [1]; [4],260 ± 150 nM
Cc1ccc(-n2c(-c3ccccn3)nc3ccccc3c2=O)cc1 [Compound 8],LE (ligand efficiency),S6K1 [1]; Table 2,0.33
same,IC50,S6K1 [1]; [4],1550 ± 920 nM
O=c1c2ccccc2nc(-c2ccccn2)n1-c1ccccc1 [Compound 9],LE (ligand efficiency),S6K1 [1]; Table 2,0.33
same,IC50,S6K1 [1]; [4],2970 ± 1530 nM
CC(C)n1c(-c2nonc2N)nc2ccccc21 [Compound 10],LE (ligand efficiency),S6K1 [1]; Table 3,0.50
same,IC50,S6K1 [1]; [5],340 ± 140 nM
C=CCn1c(-c2nonc2N)nc2ccccc21 [Compound 11],IC50,S6K1 [1]; HTS hits,7000 nM
same,LE (ligand efficiency),S6K1 [1]; Table 3,0.40
same,IC50,S6K1 [1]; [5],6980 ± 2070 nM
"Cn1c(-c2nonc2N)nc2ccccc21 [Compound 15a, 4-(1-Methyl-1H-benzoimidazol-2-yl)-1,2,5-oxadiazole-3-ylamine]",LE (ligand efficiency),S6K1 [2]; Table 4,0.58
same,IC50,S6K1 [2]; [6],194 nM
same,activity against S6K1 (in words),S6K1 [2],about six-fold less active
"CCn1c(-c2nonc2N)nc2ccccc21 [Compound 15b, 4-(1-Ethyl-1H-benzoimidazol-2-yl)-1,2,5-oxadiazole-3-ylamine]",LE (ligand efficiency),S6K1 [2]; Table 4,0.59
same,IC50,S6K1 [2]; [6],59.8 ± 32.4 nM
"Nc1nonc1-c1nc2ccccc2n1C1CC1 [Compound 15c, 4-(1-Cyclopropyl-1H-benzoimidazol-2-yl)-1,2,5-oxadiazole-3-ylamine]",LE (ligand efficiency),S6K1 [2]; Table 4,0.57
same,IC50,S6K1 [2]; [6],36.6 ± 7 nM
"Nc1nonc1-c1nc2ccccc2n1Cc1ccccc1 [Compound 15d, 4-(1-Benzyl-1H-benzoimidazol-2-yl)-1,2,5-oxadiazole-3-ylamine]",IC50,S6K1 [2]; [6],> 100000 nM
same,activity against S6K1 (in words),S6K1 [2],complete loss of biochemical activity
"Nc1nonc1-c1nc2ccccc2n1CC1CC1 [Compound 15e, 4-(1-Cyclopropylmethyl-1H-benzoimidazol-2-yl)-1,2,5-oxadiazole-3-ylamine]",LE (ligand efficiency),S6K1 [2]; Table 4,0.56
same,IC50,S6K1 [2]; [6],19.8 nM
"CC(=O)Nc1nonc1-c1nc2ccccc2n1C1CC1 [Compound 16, N-[4-(1-Cyclopropyl-1H-benzoimidazol->2-yl)-1,2,5-oxadiazole-3-yl]-acetamide]",IC50,"S6K1 [2]; acetylated aminooxadiazole, read-out: S6K IC50",> 100000 nM
"CCn1c(-c2nonc2N)nc2cc(Br)ccc21 [Compound 20a, 3-Amino-4-(5-bromo-1-ethyl-1H-benzimidazol-2-yl)-1,2,5-oxadiazole]",LE (ligand efficiency),S6K1 [2]; Table 5,0.55
same,IC50,S6K1 [2]; [7],66.4 ± 5.6 nM
"CCn1c(-c2nonc2N)nc2cc(-c3ccccc3)ccc21 [Compound 20b, 3-Amino-4-(1-ethyl-5-phenyl-1H-benzimidazol-2-yl)-1,2,5-oxadiazole]",LE (ligand efficiency),S6K1 [2]; Table 5,0.35
same,IC50,S6K1 [2]; [7],1640 ± 530 nM
"CCn1c(-c2nonc2N)nc2cc(C3CC3)ccc21 [Compound 20c, 3-Amino-4-(5-cyclopropyl-1-ethyl-1H-benzimidazol-2-yl)-1,2,5-oxadiazole]",LE (ligand efficiency),S6K1 [2]; Table 5,0.45
same,IC50,S6K1 [2]; [7],334 ± 25.1 nM
"CCn1c(-c2nonc2N)nc2cc(OC)ccc21 [Compound 20d, 3-Amino-4-(1-ethyl-5-methoxy-1H-benzimidazol-2-yl)-1,2,5-oxadiazole]",LE (ligand efficiency),S6K1 [2]; Table 5,0.52
same,IC50,S6K1 [2]; [7],63.4 nM
"CCn1c(-c2nonc2N)nc2cc(NC)ccc21 [Compound 20e, 3-Amino-4-(1-ethyl-5-methylamino-1H-benzimidazol-2-yl)-1,2,5-oxadiazole]",LE (ligand efficiency),S6K1 [2]; Table 5,0.50
same,IC50,S6K1 [2]; [7],148 nM
"CCn1c(-c2nonc2N)nc2cccc(Br)c21 [Compound 20f, 3-Amino-4-(7-bromo-1-ethyl-1H-benzimidazol-2-yl)-1,2,5-oxadiazole]",LE (ligand efficiency),S6K1 [2]; Table 5,0.50
same,IC50,S6K1 [2]; [7],303 ± 21 nM
"CCn1c(-c2nonc2N)nc2cccc(-c3cccnc3)c21 [Compound 20g, 3-Amino-4-(7-(3-pyridinyl)-1-ethyl-1H-benzimidazol-2-yl)-1,2,5-oxadiazole]",LE (ligand efficiency),S6K1 [2]; Table 5,0.39
same,IC50,S6K1 [2]; [7],352 ± 173 nM
"CCn1c(-c2nonc2N)nc2cnc(Br)cc21 [Compound 21a, 3-Amino-4-(6-bromo-1-ethyl-1H-imidazo[4,5-c]pyridin-2-yl)-1,2,5-oxadiazole]",LE (ligand efficiency),S6K1 [2]; Table 6,0.59
same,IC50,S6K1 [2]; [8],19.7 ± 2.6 nM
"CCn1c(-c2nonc2N)nc2cnc(Oc3cccc(S(C)(=O)=O)c3)cc21 [Compound 21b, 4-[1-Ethyl-6-(3-methanesulfonyl-phenoxy)-1H-imidazo[4,5-c]pyridin-2-yl]-1,2,5-oxadiazole-3-ylamine]",LE (ligand efficiency),S6K1 [2]; Table 6,0.34
same,IC50,S6K1 [2]; [8],103 ± 23 nM
"CCn1c(-c2nonc2N)nc2cnc(-c3ccccc3)cc21 [Compound 21c, 4-(1-Ethyl-6-phenyl-1H-imidazo[4,5-c]pyridin-2-yl)-1,2,5-oxadiazole-3-ylamine]",IC50,S6K1 [2]; [8],> 100000 nM
same,activity against S6K1 (in words),S6K1 [2],abolished all affinity for S6K1
"CCn1c(-c2nonc2N)nc2cnc(N3CCOCC3)cc21 [Compound 21d, 4-(1-Ethyl-6-morpholin-4-yl-1H-imidazo[4,5-c]pyridin-2-yl)-1,2,5-oxadiazole-3-ylamine]",LE (ligand efficiency),S6K1 [2]; Table 6,0.42
same,IC50,S6K1 [2]; [8],110 nM
"CCn1c(-c2nonc2N)nc2cnc(C)cc21 [Compound 21e, 4-(1-Ethyl-6-methyl-1H-imidazo[4,5-c]pyridin-2-yl)-1,2,5-oxadiazole-3-ylamine]",IC50,S6K-Ser421/424,> 15000 nM
same,EC50,RPS6-ser235/236,9100 ± 1500 nM
same,IC50,GSK3b-Ser9,> 15000 nM
same,ligand efficiency,S6K1 [2],0.6
same,LE (ligand efficiency),S6K1 [2]; Table 6,0.60
same,IC50,S6K1 [2]; [8],17.4 ± 6 nM
same,IC50,AKT-Thr308,> 15000 nM
same,IC50,AKT-Ser473,> 15000 nM
same,GI50,[3],3500 nM
same,IC50,S6K2,300 ± 102 nM
